Measurements from patent publication US20260152487A1 (Sitryx Therapeutics Limited, priority 2021, published 2026).

What was measured:
[1] = biological target: T1, recombinant human PKM2 (Homo sapiens, UniProt P14618); assay: Human PKM2 activation assay (Kinase-Glo Plus luminescent detection of generated ATP); assay type: biochemical; conditions: for Emax: percentage activation normalised to DMSO vehicle (LOW) and 5 μM TEPP-46 (HIGH), read-out: hPKM2 Emax; for EC50: recombinant human PKM2 activation, 4-parameter logistic fit, read-out: hPKM2 EC50
T1 construct: His (N); purchased R&D Systems
In short: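 N-His-tagged recombinant hPKM2 ([…]) with PEP and ADP was incubated with compound for 60 min at 26 °C, shaking, in 50 mM imidazole, 50 mM KCl, 7 mM MgCl2, 0.01% Tween20, 0.05% BSA, pH 7.2. ATP produced was read by Kinase-Glo Plus luminescence after 15 min.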

[2] = test system: A549 cells; assay: A549 cell proliferation in low-serine medium (CellTiter-Glo 2.0 viable cell number); assay type: cell-based; conditions: Homo sapiens, 72 h, 3 days, Assay Medium with 20 μM L-serine
Procedure: The effect of compounds of Formula (Ia) on A549 cell proliferation in low-serine medium was assessed using a luminescence assay of viable cell number (CellTiter-Glo® 2.0, Promega) duplexed with a fluorescent cytotoxicity assessment (CelITox™ Green, Promega). Cell culture reagents were from ThermoFisher unless specified otherwise. Assay reagents were from Sigma-Aldrich unless specified otherwise. Test Compounds were prepared as 10 mM DMSO stocks and dilution series prepared in DMSO for direct dilution into culture medium.
Cells were passaged every 3-4 days at 80-90% confluence. The cell monolayer was washed twice with room-temperature Ca^2+/Mg-free PBS and 4 ml room-temperature trypsin-EDTA added to the flask. After 5 minutes' incubation (37° C., 5% CO2) to detach cells, trypsin was quenched with 13 ml warmed complete growth medium and the cells harvested and diluted to 2.4×10^4 cells/ml for dispensing into 384-well clear-bottom black-walled plates (600 cells/well).
Following overnight incubation, growth medium was aspirated from each well and the cells washed twice with Assay Medium comprising Basal Medium Eagle supplemented with 3% heat-inactivated dialysed FBS plus 2 mM L-glutamine plus 20 μM L-serine (Sigma-Aldrich). After aspiration of the final wash medium, Assay Medium containing Test Compound was added to each well. DMSO vehicle controls were included on each plate.
Cells were incubated for 3 days in a humidified incubator (37° C., 5% CO2) at which point CelITox™ Green and CellTiter-Glo® reagents were prepared according to the manufacturer's instructions. Triton-X was added to HIGH wells for cytotoxicity determination and the plate incubated for 30 minutes (20° C., ambient humidity and pCO2). CelITox™ Green reagent was added to each well and the plate covered, placed on an orbital shaker @450 rpm for 2 minutes, and incubated in the dark for 15 minutes (20° C., ambient humidity and pCO2). Endpoint fluorescence was measured using a plate reader (PHERAstar® FSX, BMG Labtech).
Following cytotoxicity determination, CellTiter-Glo® reagent was added to each well and the plate placed on an orbital shaker @450 rpm for 2 minutes to lyse cells. Plates were incubated in the dark for 15-30 minutes (20° C., ambient humidity and pCO2) prior to endpoint luminescence measurement (PHERAstar® FSX, BMG Labtech).
Proliferation was calculated by normalizing luminescence signals to LOW controls obtained from a parallel plate processed at the time of Test Compound challenge and HIGH (DMSO vehicle) wells from the compound plate. IC50 values were determined from a 4-parameter logistic fit of compound concentration-response curves.

T1 sequence (P14618 2-531 limits assumed): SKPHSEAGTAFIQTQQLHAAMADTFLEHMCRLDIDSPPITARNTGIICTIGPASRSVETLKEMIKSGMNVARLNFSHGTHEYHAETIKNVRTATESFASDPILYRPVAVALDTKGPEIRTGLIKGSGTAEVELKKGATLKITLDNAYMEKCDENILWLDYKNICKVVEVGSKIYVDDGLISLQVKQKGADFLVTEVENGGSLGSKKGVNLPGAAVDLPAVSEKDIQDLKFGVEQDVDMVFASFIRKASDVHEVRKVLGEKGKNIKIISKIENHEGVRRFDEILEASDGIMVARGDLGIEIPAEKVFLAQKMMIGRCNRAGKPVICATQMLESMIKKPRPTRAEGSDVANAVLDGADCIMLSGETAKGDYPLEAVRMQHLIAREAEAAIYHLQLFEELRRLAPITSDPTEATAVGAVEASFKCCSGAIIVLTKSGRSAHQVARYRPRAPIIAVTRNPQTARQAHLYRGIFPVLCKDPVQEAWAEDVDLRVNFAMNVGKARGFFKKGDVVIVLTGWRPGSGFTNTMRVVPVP

| Emax [1] | EC50 [1] | IC50 [2] | SMILES |
| --- | --- | --- | --- |
| 87.4% | 80.9 nM | 3.5 nM | COCC(c1ccccc1)n1ncc2cc(S(=O)(=O)c3ccc(OC)cc3)ccc2c1=O (stereo not drawn) [Example 82, 2-(2-methoxy-1-phenylethyl)-6-((4-methoxyphenyl)sulfonyl)phthalazin-1(2H)-one] |
| 111% | 42.5 nM | 1.7 nM | COc1ccc(S(=O)(=O)c2ccc3c(=O)n(Cc4ccccc4N)ncc3c2)cc1 [Example 43, 2-(2-aminobenzyl)-6-((4-methoxyphenyl)sulfonyl)phthalazin-1(2H)-one] |
| 97.5% | 70.6 nM | 3.1 nM | COc1ccc(S(=O)(=O)c2ccc3c(=O)n(Cc4ccccc4)ncc3c2)cc1 [Example 50, 2-benzyl-6-((4-methoxyphenyl)sulfonyl)phthalazin-1(2H)-one] |
| 102% | 131 nM | 12.1 nM | O=c1c2ccc(S(=O)(=O)c3ccccc3)cc2cnn1Cc1ccc(OCCO)nc1 [Example 21, 2-((6-(2-hydroxyethoxy)pyridin-3-yl)methyl)-6-(phenylsulfonyl)phthalazin-1(2H)-one] |
| 88.6% | 477 nM | 41.8 nM | O=c1c2ccc(S(=O)(=O)c3ccccc3)cc2cnn1Cc1ccc2cn[nH]c2c1 [Example 58, 2-((1H-indazol-6-yl)methyl)-6-(phenylsulfonyl)phthalazin-1(2H)-one] |
| 91.4% | 185 nM | 3.3 nM | COCC(c1ccccc1)n1ncc2cc(S(=O)(=O)c3ccccc3)ccc2c1=O (stereo not drawn) [Example 67, 2-(2-methoxy-1-phenylethyl)-6-(phenylsulfonyl)phthalazin-1(2H)-one] |
| 80.8% | 931 nM | 218 nM | COCC(c1ccc(OC)nc1)n1ncc2cc(S(=O)(=O)c3ccccc3)ccc2c1=O (stereo not drawn) [Example 8, 2-(2-methoxy-1-(6-methoxypyridin-3-yl)ethyl)-6-(phenylsulfonyl)phthalazin-1(2H)-one] |
| 101% | 105 nM | 4.1 nM | Cn1cc(Cl)c(Cn2ncc3cc(S(=O)(=O)c4ccccc4)ccc3c2=O)n1 [Example 76, 2-((4-chloro-1-methyl-1H-pyrazol-3-yl)methyl)-6-(phenylsulfonyl)phthalazin-1(2H)-one] |
| 71.9% | 150 nM | 7.4 nM | Cn1ncc2ccc(Cn3ncc4cc(S(=O)(=O)c5ccccc5)ccc4c3=O)cc21 [Example 39, 2-((1-methyl-1H-indazol-6-yl)methyl)-6-(phenylsulfonyl)phthalazin-1(2H)-one] |
| 82% | 257 nM | 9 nM | COc1ccc(S(=O)(=O)c2ccc3c(=O)n(Cc4ccc(C)nc4O)ncc3c2)cc1 [Example 98, 2-((2-hydroxy-6-methylpyridin-3-yl)methyl)-6-(4-methoxyphenylsulfonyl)phthalazin-1(2H)-one] |
| 109% | 55 nM | 2.3 nM | O=c1c2ccc(S(=O)(=O)c3ccccc3)cc2cnn1Cc1ccc2c(c1)OCO2 [Example 57, 2-(benzo[d][1,3]dioxol-5-ylmethyl)-6-(phenylsulfonyl)phthalazin-1(2H)-one] |
| 102% | 115 nM | 14.1 nM | O=c1c2ccc(S(=O)(=O)c3ccccc3)cc2cnn1Cc1ccccc1 [Example 71, 2-benzyl-6-(phenylsulfonyl)phthalazin-1(2H)-one] |
| 99.6% | 163 nM | 3.2 nM | O=c1c2ccc(S(=O)(=O)c3ccccc3)cc2cnn1Cc1ccccc1F [Example 32, 2-(2-fluorobenzyl)-6-(phenylsulfonyl)phthalazin-1(2H)-one] |
| 106% | 63 nM | 4 nM | Cc1nc(Cn2ncc3cc(S(=O)(=O)c4ccccc4)ccc3c2=O)cs1 [Example 77, 2-((2-methylthiazol-4-yl)methyl)-6-(phenylsulfonyl)phthalazin-1(2H)-one] |
| 109% | 38.9 nM | 1.7 nM | COc1ccc(S(=O)(=O)c2ccc3c(=O)n(Cc4cc[nH]n4)ncc3c2)cc1 [Example 6, 2-((1H-pyrazol-3-yl)methyl)-6-((4-methoxyphenyl)sulfonyl)phthalazin-1(2H)-one] |
| 98.8% | 166 nM | 7.8 nM | O=c1c2ccc(S(=O)(=O)c3ccccc3)cc2cnn1Cc1ccn(CCO)n1 [Example 10, 2-((1-(2-hydroxyethyl)-1H-pyrazol-3-yl)methyl)-6-(phenylsulfonyl)phthalazin-1(2H)-one] |
| 101% | 59.7 nM | 1.9 nM | COc1ccc(S(=O)(=O)c2ccc3c(=O)n(Cc4cccc(OC)c4F)ncc3c2)cc1 [Example 52, 2-(2-fluoro-3-methoxybenzyl)-6-((4-methoxyphenyl)sulfonyl)phthalazin-1(2H)-one] |
| 113% | 117 nM | 3.1 nM | NC(=O)c1sccc1Cn1ncc2cc(S(=O)(=O)c3ccccc3)ccc2c1=O [Example 13, 3-((1-oxo-6-(phenylsulfonyl)phthalazin-2(1H)-yl)methyl)thiophene-2-carboxamide] |
| 99% | 802 nM | 89.1 nM | O=c1c2ccc(S(=O)(=O)c3ccccc3)cc2cnn1C(F)(F)c1cccnc1 [Example 78, 2-(difluoro(pyridin-3-yl)methyl)-6-(phenylsulfonyl)phthalazin-1(2H)-one] |
| 74.5% | 240 nM | 354 nM | COc1ccc(S(=O)(=O)c2ccc3c(=O)n(Cc4cc(C(C)C)cnc4O)ncc3c2)cc1 [Example 101, 2-((2-hydroxy-5-isopropylpyridin-3-yl)methyl)-6-(4-methoxyphenylsulfonyl)phthalazin-1(2H)-one] |
| 107% | 138 nM | 4.6 nM | COc1ccc(S(=O)(=O)c2ccc3c(=O)n(Cc4c(C)ccnc4O)ncc3c2)cc1 [Example 99, 2-((2-hydroxy-4-methylpyridin-3-yl)methyl)-6-(4-methoxyphenylsulfonyl)phthalazin-1(2H)-one] |
| 67.2% | 564 nM | 15.8 nM | NC(=O)Cc1ccccc1Cn1ncc2cc(S(=O)(=O)c3ccccc3)ccc2c1=O [Example 61, 2-(2-((1-oxo-6-(phenylsulfonyl)phthalazin-2(1H)-yl)methyl)phenyl)acetamide] |
| 99.4% | 739 nM | 15.8 nM | Cc1ncc(Cn2ncc3cc(S(=O)(=O)c4ccccc4)ccc3c2=O)s1 [Example 30, 2-((2-methylthiazol-5-yl)methyl)-6-(phenylsulfonyl)phthalazin-1(2H)-one] |
| 70.8% | 677 nM | 73.9 nM | COc1ccc(S(=O)(=O)c2ccc3c(=O)n(Cc4cc(F)cnc4O)ncc3c2)cc1 [Example 100, 2-((5-fluoro-2-hydroxypyridin-3-yl)methyl)-6-(4-methoxyphenylsulfonyl)phthalazin-1(2H)-one] |
| 96.4% | 45 nM | 2.1 nM | CC1Cc2cc(Cn3ncc4cc(S(=O)(=O)c5ccccc5)ccc4c3=O)ccc2O1 (stereo not drawn) [Example 64, 2-((2-methyl-2,3-dihydrobenzofuran-5-yl)methyl)-6-(phenylsulfonyl)phthalazin-1(2H)-one] |
| 103% | 35.9 nM | 3.2 nM | COc1ccc(S(=O)(=O)c2ccc3c(=O)n(Cc4ccn(C)n4)ncc3c2)cc1 [Example 72, 6-((4-methoxyphenyl)sulfonyl)-2-((1-methyl-1H-pyrazol-3-yl)methyl)phthalazin-1(2H)-one] |
| 98.9% | 49.8 nM | 6.7 nM | COc1cccc(Cn2ncc3cc(S(=O)(=O)c4ccccc4)ccc3c2=O)c1 [Example 81, 2-(3-methoxybenzyl)-6-(phenylsulfonyl)phthalazin-1(2H)-one] |
| 94.9% | 69.9 nM | 2.2 nM | COc1ccc(S(=O)(=O)c2ccc3c(=O)n(Cc4c(Cl)ccnc4O)ncc3c2)cc1 [Example 102, 2-((4-chloro-2-hydroxypyridin-3-yl)methyl)-6-(4-methoxyphenylsulfonyl) phthalazin-1(2H)-one] |
